Results taken from US12466849B2, “Anti-viral and anti-tumoral compounds” (YEDA RESEARCH AND DEVELOPMENT CO. LTD, priority 2020, dated 2025).
≈ marks a conversion by molar mass, not a printed value. Where two headings read alike, the source gives them in different places.

Assays:
[1] = tested on: dengue virus-2 (DV-2)
[2] = tested on: Zika virus
[3] = tested on: Influenza B
[4] = tested on: SARS-CoV
[5] = tested on: MRC-5 cells
[6] = tested on: Yellow fever virus (YFV)
[7] = tested on: influenza A(H5N1)
[8] = tested on: Rift Valley fever virus (RVFV)
[9] = tested on: adenovirus-5 (Ad5)
[10] = tested on: Japanese encephalitis virus (JEV)
[11] = tested on: Venezuelan equine encephalitis virus (VEEV)
[12] = tested on: West Nile virus (WNV)
[13] = tested on: HCMV AD169; assay: HCMV plaque reduction assay, MRC-5 cells, strain AD169; assay type: cell-based, Human cytomegalovirus; conditions: for EC50: plaque assay, 6-days duration
[14] = tested on: RSV
[15] = tested on: influenza A(H1N1)
[16] = tested on: SARS-CoV-2
[17] = tested on: Powassan virus (POWV)
[18] = tested on: enterovirus-68 (EV-68)
[19] = tested on: TCRV
[20] = tested on: poliovirus-1 (POV-1)
[21] = in vitro; conditions: human
[22] = tested on: BK virus (BKV), Gardner strain
[23] = human
[24] = in vitro; conditions: male, SD, rat, plasma
[25] = tested on: BK virus (BKV), Gardner strain; assay: microbe, parasite or virus in culture; conditions: Betapolyomavirus hominis, HFF
[26] = tested on: JC virus (JCV)
[27] = MRC-5 cytotoxicity assay (MTS) and visual cytotoxicity; conditions: human
[28] = in vitro; conditions: both, human, plasma
[29] = in vitro; conditions: human; remark: listed apart in the source
[30] = in vitro; conditions: human; remark: listed apart in the source
[31] = in vitro; conditions: African green monkey
[32] = tested on: JC virus (JCV); assay: microbe, parasite or virus in culture; conditions: JC polyomavirus, COS-7
[33] = in vitro; conditions: rat
[34] = rat; for Peak area ratio, parent: 1 µM
[35] = Secondary JCV assay (qPCR), COS7 cells; conditions: African green monkey
[36] = tested on: JC virus (JCV); assay: Secondary JCV assay (qPCR), COS7 cells
[37] = tested on: HFF cells; assay: Cell proliferation assay, human foreskin fibroblast (HFF) cells; assay type: cell-based; conditions: Homo sapiens, 72 h, cell number
[38] = Liver (hepatic) S9 stability, rat
[39] = Liver (hepatic) S9 stability, human
[40] = tested on: enterovirus-68 (EV-68); assay: organism not typed; conditions: RD, read-out: EQ50
[41] = target: T1, SARS-Cov2 RdRp (nsp12-nsp7-nsp8) (Severe acute respiratory syndrome coronavirus 2, UniProt P0DTD1); assay type: biochemical; conditions: primer extension; analog at 100 uM, printed 100 mM
[42] = target: T1, SARS-Cov2 RdRp (nsp12-nsp7-nsp8); assay type: biochemical; conditions: after addition of GTP and CTP (third and fourth nucleotides)
[43] = Vero 76 cells without virus, test compounds

`O=c1ccn([C@@H]2OC(CO)=C[C@H]2O)c(=O)[nH]1` [AB21649] gave a CC50 [1] greater than 2000 µM, an EC50 [1] greater than 2000 µM and an SI ([1]; DV-2, SI = CC50/EC50) of 0. The CC50 [2] was 1500 µM, the EC50 [2] was greater than 1500 µM and the SI ([2]; Zika, SI = CC50/EC50) was 0. For the same compound, the CC50 [3] was 1300 µM, the EC50 [3] was 310 µM and the “antiviral activity against Influenza B (in words)” value [3] was “exhibits antiviral activity”. It also gave an SI ([3]; Influenza B, SI = CC50/EC50) of 4.2, an SI ([4]; SARS-CoV, SI = CC50/EC50) of 0 and an EC50 ([4]; SARS-CoV, Vero 76 cells, test compounds) greater than 1500 µM. It also gave a CC50 [4, 43] of 1500 µM, a CC50 [5] greater than 100 µM and a CC50 ([6]; Huh7 cells without virus, test compounds) greater than 2000 µM. The EC50 ([6]; YFV, Huh7 cells, test compounds) was greater than 2000 µM, the SI ([6]; YFV, SI = CC50/EC50) was 0 and the CC50 ([7]; MDCK cells without virus, test compounds) was 1300 µM. The “antiviral activity against Influenza (H5N1) (in words)” value ([7]; Table 11) was “exhibits antiviral activity”, the EC50 ([7]; influenza A(H5N1), MDCK cells, test compounds) was 800 µM and the SI ([7]; influenza A(H5N1), SI = CC50/EC50) was 1.6. It also gave an SI ([8]; RVFV, SI = CC50/EC50) of 0, an EC50 ([8]; RVFV, Vero 76 cells, test compounds) greater than 1100 µM and a CC50 [8, 43] of 1100 µM. For the same compound, the CC50 [9] was greater than 2000 µM, the EC50 [9] was greater than 2000 µM and the SI ([9]; Ad5, SI = CC50/EC50) was 0. For the same compound, the CC50 [10] was 1700 µM, the EC50 [10] was greater than 1700 µM and the SI ([10]; JEV, SI = CC50/EC50) was 0. It also gave an SI ([11]; VEEV, SI = CC50/EC50) of 0, an EC50 ([11]; VEEV, Vero 76 cells, test compounds) greater than 1100 µM and a CC50 [11, 43] of 1100 µM. For the same compound, the CC50 [12] was 1400 µM, the EC50 [12] was greater than 1400 µM and the SI ([12]; WNV, SI = CC50/EC50) was 0. The EC50 ([13]; hCMV AD169, MRC5 cells) was greater than 100 µM, the CC50 [14] was 1900 µM and the EC50 [14] was greater than 1900 µM. For the same compound, the SI ([14]; RSV, SI = CC50/EC50) was 0, the CC50 [15] was 1400 µM and the EC50 [15] was 560 µM. For the same compound, the “antiviral activity against Influenza (H1N1) (in words)” value [15] was “exhibits antiviral activity”, the SI ([15]; influenza A(H1N1), SI = CC50/EC50) was 2.5 and the CC50 [16] was greater than 2000 µM. It also gave an EC50 [16] greater than 2000 µM, an SI ([16]; SARS-CoV-2, SI = CC50/EC50) of 0 and a CC50 ([17]; BHK-21 cells without virus, test compounds) greater than 2000 µM. It also gave an EC50 ([17]; POWV, BHK-21 cells, test compounds) greater than 2000 µM, an SI ([17]; POWV, SI = CC50/EC50) of 0 and a CC50 [18] of 390 µM. For the same compound, the EC50 ([18]; 33°C) was greater than 390 µM, the SI ([18]; EV-68, SI = CC50/EC50) was 0 and the CC50 [19] was 1200 µM. For the same compound, the EC50 [19] was greater than 1200 µM, the SI [19] was 0 and the SI ([20]; POV-1, SI = CC50/EC50) was 0. The EC50 ([20]; POV-1, Vero 76 cells, test compounds) was greater than 1000 µM and the CC50 [20, 43] was 1000 µM.
With `CCCCCCCCCCCCCCCCOCCCOP(=O)(O)OCC1=CC(O)C(n2ccc(=O)[nH]c2=O)O1` (centres unmarked) [AB23039] the CC50 at 7 d [21] was greater than 150 µM, the Activity [22] was “HI (key: NA (Not Active) SI50 = 0-3.9; LO (Slightly Active) SI50 = 4-9.9; MOD (Moderately Active) SI50 = 10-19.9; HI (Highly Active) SI50 = ≥20)” and the “activity against BK virus (in words)” value [22] was “high activity”. The CLhep ([23]; 1 μM) was 9.1 mL/min/kg, the Eh ([23]; 1 μM) was 44% and the “Peak area ratio, parent” value ([23]; 15 min, 1 μM) was 3.41E−01. For the same compound, the “Peak area ratio, parent” value ([23]; 60 min, 1 μM) was 3.09E−01, the “hydrolytic stability in hepatic S9 (in words)” value ([23]; s9) was “most stable” and the T1/2 ([23]; s9, 1 μM) was 4.42 h. For the same compound, the half-life at 0.75 µM [24] was greater than 9.32 h, the half-life at 0.75 μM [24] was greater than 9.3 h and the EC50 [25] was 0.86 µM. The EC90 [25] was 7.76 µM, the Activity [26] was “HI (key: NA (Not Active) SI50 = 0-3.9; LO (Slightly Active) SI50 = 4-9.9; MOD (Moderately Active) SI50 = 10-19.9; HI (Highly Active) SI50 = ≥20)” and the “activity against JC virus (in words)” value [26] was “high activity”. The CC50 at 6 days [27] was 42.2 µM, the half-life at 0.75 µM [28] was greater than 9.32 h and the half-life at 0.75 μM [28] was greater than 9.3 h. The microsomal CLint at 1 μM ([29]; s9) was 5.2 µL/min/mg, the half-life at 1 μM ([29]; s9, T1/2) was 4.41 h and the CC50 [30] was 90.9 µM. The CC50 [31] was 71.8 µM, the EC50 [32] was 0.21 µM and the EC90 [32] was 23.4 µM. For the same compound, the EC50 ([13]; Human betaherpesvirus 5, 144 h, hCMV AD169, MRC5 cells) was 18.1 µM, the “antiviral activity against hCMV (in words)” value ([13]; MRC5 cells, AD169 strain) was “impressive antiviral activity” and the “Selectivity Index (CC50/EC50)” value ([13]; hCMV AD169, MRC5 cells) was 2.33. It also gave a microsomal CLint at 1 μM ([33]; s9) of 4 µL/min/mg, a half-life at 1 μM ([33]; s9, T1/2) of 5.79 h and a CLhep ([34]; 1 μM) of 14.3 mL/min/kg. For the same compound, the Eh ([34]; 1 μM) was 26%, the “Peak area ratio, parent” value ([34]; 15 min) was 3.61E−01 and the “Peak area ratio, parent” value ([34]; 60 min) was 3.25E−01. For the same compound, the “hydrolytic stability in hepatic S9 (in words)” value ([34]; s9) was “most stable”, the T1/2 ([34]; s9, 1 μM) was 5.78 h and the CC50 at 7 days [35] was 46.8 µM. For the same compound, the EC50 ([36]; JC polyomavirus, COS-7, 168 h) was 3.07 µM, the EC90 ([36]; JC polyomavirus, COS-7, 168 h) was 9.44 µM and the Activity ([36]; secondary JCV assay, COS7 cells, class by SI50) was “MOD (MOD (Moderately Active) SI50 = 10-19.9)”. The “antiviral activity against JCV (in words)” value ([36]; secondary testing, COS7 cells) was “moderate” and the IC50 [37] was greater than 100 µM.
Compound `COc1ccc2c(c1)[C@]13CCCC[C@@H]1[C@H](C2)N(C)CC3` [Dextromethorphan] has a CLhep ([38]; predicted from S9 CLint (well-stirred model)) of 37.2 mL/min/kg, a half-life at 1 μM ([38]; s9) of 0.98 h and a microsomal CLint at 1 μM ([38]; s9) of 23.6 µL/min/mg. It also gave a T1/2 ([39]; human liver S9, 0.5 mg/mL, NADPH incubation (Table 24 gives without NADPH)) of 1.57 h, a microsomal CLint at 1 μM ([39]; human, s9) of 14.7 µL/min/mg and a CLhep ([39]; human, predicted from S9 CLint (well-stirred model)) of 14.3 mL/min/kg.
`CCOC(=O)c1ccc(OCCC2CCN(c3ccc(C)nn3)CC2)cc1` [Pirodavir] gave an EC50 [40] of 0.039 µg/mL (≈ 0.106 µM) and a CC50 ([18]; human) of 4.3 µg/mL.
For `N#C[C@@]1(c2ccc3c(N)ncnn23)OC(COP(=O)(O)OP(=O)(O)OP(=O)(O)O)=C[C@H]1O` [ddhREM-TP, ddhRemdesivir], the “incorporation into RNA by SARS-Cov2 RdRp (in words)” value [41] was “incorporated into RNA as ATP analogs” and the “chain termination of RNA synthesis (in words)” value [42] was “caused termination of RNA synthesis”.
